Tests used:
platelet aggregation [1] = assay: In vivo activity in dogs: ex vivo platelet aggregation, intravenous infusion; design: species or system dog; settings: 10 μg/kg/min and 25 μg/kg/min
Method: (§1) The following protocols were used to determine in vivo activity in dogs of fibrinogen receptor antagonists of the present invention.
(§2) A mongrel dog of either sex (weighing 7.5 to 11.5 kg) is comfortably positioned in a nylon sling which exposes the legs and keeps the dog stationary. Five ml of blood is withdrawn from either saphenous or cephalic veins with a plastic syringe containing 0.5 ml of 3.8% citrate via a 19-gauge butterfly. An additional I ml of citrated blood is taken to measure whole blood platelet counts. Ex vivo platelet aggregations are done with the agonists ADP (10 μM) and collagen (10 μg/ml) both primed with 1μM epinephrine. Platelet-rich plasma (PRP) is obtained by centrifuging the blood at 150 x g for 5 minutes. Platelet counts are adjusted to 200,000/mm^3 with platelet-poor plasma.
For the intravenous infusion, blood samples for ex vivo platelet aggregation are taken at the following time points: 0,30, 45, 60, 90 and 120 min into the infusion and 2,5, 15, 30, 60, 90, 120, 180, 240, 300, 360, and 420 minutes after the infusion stops. At each time point, the remaining platelet-poor plasma is saved and frozen for drug levels. The drug is infused for 120 minutes at a constant rate of 0.1 ml/min.
(§3) In the oral and intravenous groups, blood collection times are recorded at each time point in order to determine drug plasma levels.

platelet aggregation [2] = assay: In vivo activity in dogs: ex vivo platelet aggregation, oral administration; design: species or system dog; settings: single oral administration of 2 mg/kg, for a period of eight hours
Method: as §1, §2
Oral administration of a drug is done either as a gelatin capsule or a gastric lavage. For the gastric lavage method, 5 ml of the drug solution is administered to the dog through a feeding tube. Blood samples for ex vivo platelet aggregation are taken at the following time points: 0,20, 40, 70, 90, 150, 200, 250, 300, 350, 480 min. 24 hr. 30 hr, and 48 hr. At each time point, the remaining platelet-poor plasma is saved and frozen for drug levels. […]
as §3

Compound: O=C(O)CCNC(=O)CN1CCCC(CCC2CCNCC2)C1=O (stereo not drawn)
- Inhibition of platelet aggregation (% of control) during infusion (platelet aggregation [1]; during infusion): nearly complete
- Inhibition of platelet aggregation (% of control) after infusion cessation (platelet aggregation [1]; for several hours after infusion cessation): partial inhibition
- % Inhibition of platelet aggregation (platelet aggregation [2]): greater than 50%

Source: patent US5281585A, “Fibrinogen receptor antagonists for inhibiting aggregation of blood platelets” (Merck & Co., Inc., priority 1992, dated 1994)
